# Measured values: ChEMBL document CHEMBL1138583, “Pharmacophore modeling study based on known spleen tyrosine kinase inhibitors together with virtual screening for identifying novel inhibitors” (Bioorg Med Chem Lett, 2009)
# Target: T1, Tyrosine-protein kinase SYK (Homo sapiens, UniProt P43405)
# Assay: Inhibition of recombinant Syk at 10 uM
row,inhibition,SMILES
1,51%,O=C1NC(=O)N(c2cccc(Cl)c2)C(=O)/C1=C\Nc1ccc(Cl)cc1[N+](=O)[O-]
2,63%,COc1cccc2cc(C(N)=O)/c(=N/c3ccc(-c4ccccc4)cc3)oc12

# Target: T1, Tyrosine-protein kinase SYK
# Assay: Inhibition of recombinant Syk
row,SMILES,IC50
1,c1cc(-c2nccs2)nc(Nc2ccc(OCC3CCCCC3)cc2)n1,2 µM
2,COc1ccc(CNS(=O)(=O)c2ccc3c(c2)/C(=C/c2cn(C)c4ccc(OC)cc24)C(=O)N3)cc1,4 µM
3,COCCOc1ccc2c(Nc3cc(C)[nH]n3)nn(C(C)C)c(=O)c2c1,0.894 µM
4,NC(=O)c1cncnc1Nc1cccc(C(F)(F)F)c1,5 µM
5,COc1cc(/C=C/[N+](=O)[O-])ccc1O,76 µM
6,c1ccc(COc2ccc(Nc3nccc(-c4nccs4)n3)cc2)cc1,1 µM
7,COc1cc(/C=C/[N+](=O)[O-])ccc1OC(=O)c1ccccc1,3.8 µM
8,c1ccc2cc(Nc3nccc(-c4nccs4)n3)ccc2c1,2 µM
9,c1ccc(Oc2cccc(Nc3nccc(-c4nccs4)n3)c2)cc1,1 µM
10,Cc1cc(Nc2nn(CC3CCCNC3)c(=O)c3ccccc23)[nH]n1 (stereo not drawn),6.53 µM
11,c1cc(COc2ccc(Nc3nccc(-c4nccs4)n3)cc2)ccn1,2 µM
12,COC(=O)c1ccc(COc2ccc(Nc3nccc(-c4nccs4)n3)cc2)cc1,2 µM
13,O=[N+]([O-])c1ccccc1COc1ccc(Nc2nccc(-c3nccs3)n2)cc1,2 µM
14,CCc1cc(NCC(C)(C)N)n2nc(Nc3cc(OC)cc(OC)c3)c(C(N)=O)c2n1,3.89 µM
15,Cc1c(/C=C2/C(=O)Nc3ccc(S(N)(=O)=O)cc32)c2ccccc2n1C,4 µM
16,COC(=O)c1ccccc1-c1ccc(/C=C2/SC(=S)N(Cc3ccccc3)C2=O)o1,4 µM
17,Cc1ncc(C(N)=O)c(Nc2cccc(C(F)(F)F)c2)n1,5 µM
18,N#C/C(=C\c1ccc(O)c(O)c1)C(N)=S [TYRPHOSTIN 47],38 µM
19,Cc1ccc(C)c(Nc2nccc(-c3nccs3)n2)c1,1.82 µM
20,c1c[nH]c(-c2ccnc(Nc3ccc(Oc4ccc5c(c4)OCO5)cc3)n2)c1,0.5 µM
21,NCCCNc1nc(-c2cccc(C(F)(F)F)c2)cc2ncccc12,0.83 µM
22,Nc1ccccc1COc1ccc(Nc2nccc(-c3nccs3)n2)cc1,0.5 µM
23,c1cncc(Oc2cccc(Nc3nccc(-c4nccs4)n3)c2)c1,0.5 µM
24,COc1c(C[C@@H](C)OC(=O)Oc2ccc(O)cc2)c2c3c(C[C@@H](C)OC(=O)c4ccccc4)c(OC)c(=O)c4c(O)cc(OC)c(c5c(OC)cc(O)c(c1=O)c52)c43 [CALPHOSTIN C],1.1 µM
25,Fc1ccc(Nc2nccc(-c3nccs3)n2)cc1,1 µM
26,Cc1cc(Nc2nn(C(C)C)c(=O)c3cc(N4CCN(C)CC4)ccc23)[nH]n1,5.36 µM
27,CN(C)CCN(C)c1ncc(C(N)=O)c(Nc2cccc(C(F)(F)F)c2)n1,10 µM
28,Cc1cc(Nc2nn(C(C)C)c(=O)c3cc(N4CCOCC4)ccc23)[nH]n1,1.1 µM

# Continued, values first:
row,IC50,SMILES
1,0.0016 µM,COc1cc(Nc2nc(NC3CCCCC[C@H]3N)n3ccnc3c2C(N)=O)cc(OC)c1 (stereo partly drawn)
2,0.11 µM,Cc1cc(Nc2nccc(-c3nccs3)n2)cc(C(F)(F)F)c1
3,0.072 µM,CC(C)Oc1cccc(Nc2nc(NCCN)ncc2C(N)=O)c1
4,0.021 µM,Cc1cc(C)cc(Nc2nc(N[C@H](CN)c3ccccc3)n3ccnc3c2C(N)=O)c1
5,0.001 µM,COc1cc(Nc2nc(NC3CCCC[C@H]3N)n3ncnc3c2C(N)=O)cc(OC)c1 (stereo partly drawn)
6,0.0112 µM,COc1cc(Nc2nc(NC3CCCC[C@H]3N)n3nc(C)nc3c2C(N)=O)cc(OC)c1 (stereo partly drawn)
7,0.032 µM,Cc1cc(C)cc(Nc2nccc(-c3nc(C)c(CCO)s3)n2)c1
8,0.23 µM,NCCCNc1ncc(C(N)=O)c(Nc2cccc(C(F)(F)F)c2)n1
9,0.5 µM,CS(=O)(=O)c1cccc(Oc2cccc(Nc3nccc(-c4nccs4)n3)c2)c1
10,0.0025 µM,Cc1cc(C)cc(Nc2nc(CC3CCCC[C@H]3N)n3ccnc3c2C(N)=O)c1 (stereo partly drawn)
11,0.5 µM,Oc1ccc(Nc2nccc(-c3nccs3)n2)cc1
12,0.5 µM,c1ccc(COc2cccc(Nc3nccc(-c4nccs4)n3)c2)cc1
13,0.053 µM,CCc1cccc(Nc2nc(NCCN)ncc2C(N)=O)c1
14,0.081 µM,CCOc1cccc(Nc2nc(NCCN)ncc2C(N)=O)c1
15,0.5 µM,c1ccn(CCOc2ccc(Nc3nccc(-c4nccs4)n3)cc2)c1
16,0.056 µM,Cc1cc(C)cc(Nc2nccc(-c3nc(C)cs3)n2)c1
17,0.31 µM,CN(C)c1ccc(-c2cc3ncccc3c(NC(C)(C)CN)n2)cc1
18,0.0037 µM,COc1cc(Nc2nc(NC3CCCC[C@H]3N)n3cnnc3c2C(N)=O)cc(OC)c1 (stereo partly drawn)
19,0.5 µM,FC(F)(F)c1ccc(Nc2nccc(-c3nccs3)n2)cc1
20,0.092 µM,CC(C)c1cccc(Nc2nc(NCCN)ncc2C(N)=O)c1
21,0.022 µM,Cc1cc(Nc2nccc(-c3nc(C)c(CCO)s3)n2)cc(C(F)(F)F)c1
22,0.28 µM,NCCNc1ncc(C(N)=O)c(Nc2ccccc2)n1
23,0.05 µM,Cc1cccc(Nc2nc(N[C@@H]3CCCC[C@@H]3N)ccc2C(N)=O)c1
24,0.11 µM,N#Cc1cccc(Nc2nc(NCCN)ncc2C(N)=O)c1
25,0.004 µM,COc1cc(Nc2nc(N[C@@H]3CCCC[C@@H]3N)n3ncnc3c2C(N)=O)cc(OC)c1
26,0.009 µM,COc1cc(Nc2nc(N[C@@H]3CCCC[C@@H]3N)n3cnnc3c2C(N)=O)cc(OC)c1
27,0.026 µM,OCCCOc1cc(Nc2nccc(-c3nccs3)n2)cc(C(F)(F)F)c1
28,0.007 µM,COc1cc(Nc2nc(NC3CCCC[C@H]3N)n3nc(-c4cccc(O)c4)nc3c2C(N)=O)cc(OC)c1 (stereo partly drawn)
